This passage reports IC50 and half-life results from US10603319B2, “Pyrimidine derivatives and their use in treating or preventing a respiratory syncytial virus infection” (REVIRAL LIMITED, priority 2016, dated 2020).

Series [1] concerns the target T1, RSV A2_F (Human respiratory syncytial virus A, UniProt P03420).
T1 construct: expressed in transfected cells; host or cells: HEK 293T/17
The series can be described thus: RSV fusion assay (luciferase reporter, HEK 293T/17 cells transfected with A2_F). Format: cell-based. The settings on record: Fusion activity IC50 μM, HEK 293T/17 cells, 24 hr. The protocol:
HEK 293T/17 cells were cultured in T75 culture flasks in Dulbecco's medium (DMEM) containing 10% FBS and 1× Penicillin-Streptomycin (Pen/Strep) and warmed to 37° C. prior to use. The cells were passaged by first washing briefly with 3 ml phosphate buffered saline (PBS) followed by a 4 min incubation with […] at 37° C. 7 ml media was then added to the flask and the cells dispersed via pipetting (×3) against the bottom of the flask. Two further T75 flasks were each seeded with 2×10^6 cells in 15 ml fresh media.
Cells were seeded on the T75 plates at the same density as on the 6-well plates the area of a T75 flask and one 1.75 cm radius well from a 6-well plate were compared. 7.79×2 ml of 3×10^5 cells ml^−1 was used to seed a single T75 flask.
HEK cells were removed from a T75 flask as described above. The cells were counted and diluted to 3×10^5 cells/ml in fresh media. Two T75 flasks were each seeded with 15.58 ml diluted cells.
The plasmid DNA (for pFR-Luc and pcDNA3.1_Gal4/NFκB) to be transfected into the HEK cells was first prepared in serum free media (DMEM+Pen/Strep) containing the transfection reagent Fugene 6 (Promega). Transfections were set up as follows (Luc=pFR_Luc, Gal4=pcDNA3.1+_Gal4/NFκB, A2_F=pcDNA3.1+_A2_F)
Serum free media was placed in a 1.5 ml eppendorf tube then the fugene 6 was added into the media. The tube was vortexed for 1 s before being incubated at RT for 5 min. The plasmid DNA was then added to the tube, vortexed for 1 s, then incubated at RT for 15 min
The transfection reagents were then added to the appropriate T75 flask by tipping the flask on end and adding the reagents directly to the media already in the flask. The flask was then tipped on its back so the media could be mixed thoroughly whilst not disturbing the cells before placing the flask the right way up and incubating overnight at 37° C. and 5% CO2.
Compounds were diluted (in a polypropylene round-bottomed 96 well plate) 1:3 in a twelve point dilution curve to give top [final] of either 3.3 μM, 1 μM, 500 nM 200 nM or 100 nM. The Control compound was always run at a concentration of 100 nM.
The cells were then counted and diluted to 4×10^5 cells/ml in fresh media. 50 μl of transfection population 1 cells were added to all wells of the assay plates. 100 μl diluted compound (2 rows per compound), standard curve (one row) and controls (100 nM RV (100% inhibition, four wells), DMSO (0% inhibition, eight wells)) were added to the appropriate wells. 50 μl of the diluted (4×10^5 cells/ml) transfection population 2 cells when then added to all wells.
The plates were then incubated for 24 hr at 37° C. and 5% CO2
Buffers were prepared for the luciferase assay (20 mM tricine, 10 mM MgSO4, 1 mM EDTA, 10 mM DTT) and lysis (25 mM tris-phosphate, 8 mM MgCl2, 1 mM DTT, 1% Triton X-100, 15% glycerol) and stored at −20° C.
Luminescence was measured as described:
Media was discarded into Virkon and the plates washed with 100 ul PBS per well. 20 ul/well of lysis buffer was added to each well and incubated shaking for 5 min at RT. Luciferin was added to LAAB at a dilution of 1:50 to give a working luciferin buffer. 100 μl working luciferin buffer was added to each well and luminescence was measured immediately. […]
On the technique in general: In a reporter assay the amount or activity of a reporter protein is the signal.

A short description of series [2]: Liver microsomal stability, dog. Format: in vitro ADME. The settings on record: male, Beagle, pooled liver microsomes, pH 7.4, 0.5 mg/mL protein, read-out: Liver Microsomal Stability (T1/2/mins) dog. The protocol: Microsomal Incubation: Experimental Procedure
Pooled human liver microsomes (pooled male and female), pooled rat liver microsomes (male Sprague Dawley rats) and pooled dog liver microsomes (male Beagle dog) are purchased from a reputable commercial supplier and stored at −80° C. prior to use.
Microsomes (final protein concentration 0.5 mg/mL), 0.1 M phosphate buffer pH 7.4 and test compound (final substrate concentration 3 μM; final DMSO concentration 0.25%) are pre-incubated at 37° C. prior to the addition of NADPH (final concentration 1 mM) to initiate the reaction. The final incubation volume is 50 μL. A control incubation is included for each compound tested where 0.1 M phosphate buffer pH 7.4 is added instead of NADPH (minus NADPH). Two control compounds are included with each species. All incubations are performed singularly for each test compound.
Compounds are incubated for 0, 5, 15, 30 and 45 min. The control (minus NADPH) is incubated for 45 min only. […] Following protein precipitation, the sample supernatants are combined in cassettes of up to 4 compounds, internal standard is added and samples analysed by LC-MS/MS. From a plot of ln peak area ratio (compound peak area/internal standard peak area) against time, the gradient of the line is determined. Subsequently, half-life and intrinsic clearance are calculated
(In general: Microsomes from liver hold many membrane-bound enzymes, among them those of drug oxidation.)

Some results are limits rather than exact numbers.

T1 sequence (P03420 137-574): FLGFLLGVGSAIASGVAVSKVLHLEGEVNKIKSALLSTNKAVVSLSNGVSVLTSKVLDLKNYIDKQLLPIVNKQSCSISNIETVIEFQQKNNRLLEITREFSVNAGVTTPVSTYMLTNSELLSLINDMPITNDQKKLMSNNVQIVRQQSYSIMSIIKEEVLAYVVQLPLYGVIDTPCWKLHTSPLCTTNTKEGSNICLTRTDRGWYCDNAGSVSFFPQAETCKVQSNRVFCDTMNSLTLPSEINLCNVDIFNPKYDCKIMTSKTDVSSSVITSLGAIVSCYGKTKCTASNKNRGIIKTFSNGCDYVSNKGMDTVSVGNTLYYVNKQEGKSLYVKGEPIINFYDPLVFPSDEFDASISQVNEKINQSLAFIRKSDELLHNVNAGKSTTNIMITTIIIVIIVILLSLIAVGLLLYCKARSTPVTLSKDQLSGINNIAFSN
T1 sequence (P03420 26-109): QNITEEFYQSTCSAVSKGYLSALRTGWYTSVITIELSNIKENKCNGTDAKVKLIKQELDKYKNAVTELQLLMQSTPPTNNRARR

As for `NC1CCN(c2ncc(CN3C(=O)C4(CC4)c4ccc(F)cc43)c(N[C@H]3CC[C@H](O)CC3)n2)C1` (some centres unmarked) [Compound 2, 1′-((2-(3-Aminopyrrolidin-1-yl)-4-(((1r,4r)-4-hydroxycyclohexyl)amino)pyrimidin-5-yl)methyl)-6′-fluorospiro[cyclopropane-1,3′-indolin]-2′-one], it took 0.237 µM to reach half-maximal inhibition in series [1] (IC50). Besides, the half-life at 3 μM in series [2] is greater than 4 h.
